ChEMBL document CHEMBL1147423, “Synthesis and antifungal activities of phenylenedithioureas” (2004)
Converted amounts (≈) assume the structure as drawn.

Experiments:
Aspergillus niger = assay: Minimum inhibitory concentration against Aspergillus niger; type: functional
Aspergillus flavus = assay: Minimum inhibitory concentration against Aspergillus flavus; type: functional
Candida albicans = assay: Minimum inhibitory concentration against Candida albicans ATCC 10231; type: functional
Escherichia coli = assay: Minimum inhibitory concentration against Escherichia coli ATCC 25853; type: functional
Paraphyton cookei = assay: Minimum inhibitory concentration against Microsporum cookei; type: functional
Nannizzia gypsea = assay: Minimum inhibitory concentration Microsporum gypseum; type: functional
Nannizzia nana = assay: Minimum inhibitory concentration against Microsporum nanum; type: functional
Pseudomonas aeruginosa = assay: Minimum inhibitory concentration against Pseudomonas aeruginosae ATCC 27853; type: functional
Arthroderma uncinatum = assay: Minimum inhibitory concentration against Trichophyton ajelloi; type: functional
Staphylococcus aureus = assay: Minimum inhibitory concentration Staphylococcus aureus ATCC 29213; type: functional
Trichophyton benhamiae = assay: Minimum inhibitory concentration against Trichophyton mentagrophytes; type: functional, Arthroderma benhamiae
Enterococcus faecalis = assay: Minimum inhibitory concentration against Streptococcus faecalis ATCC 29212; type: functional

Compound | MIC (Aspergillus niger) | MIC (Aspergillus flavus) | MIC (Candida albicans) | MIC (Escherichia coli) | MIC (Paraphyton cookei) | MIC (Nannizzia gypsea) | MIC (Nannizzia nana) | MIC (Pseudomonas aeruginosa) | MIC (Arthroderma uncinatum) | MIC (Staphylococcus aureus) | MIC (Trichophyton benhamiae) | MIC (Enterococcus faecalis)
O=C(O)c1ccc(/N=C(\S)Nc2cccc(/N=C(/S)Nc3ccc(C(=O)O)c(O)c3)c2)cc1O | ≥ 512 µg/mL | ≥ 512 µg/mL | > 512 µg/mL | 512 µg/mL (≈ 1030 µM) | 8 µg/mL (≈ 16 µM) | 64 µg/mL (≈ 128 µM) | 64 µg/mL (≈ 128 µM) | > 512 µg/mL | 32 µg/mL (≈ 64.2 µM) | 256 µg/mL (≈ 513 µM) | 32 µg/mL (≈ 64.2 µM) | > 512 µg/mL
COC(=O)c1ccc(/N=C(\S)Nc2ccc(/N=C(/S)Nc3ccc(C(=O)OC)c(O)c3)cc2)cc1O | ≥ 512 µg/mL | ≥ 512 µg/mL | > 512 µg/mL | > 512 µg/mL | 64 µg/mL (≈ 122 µM) | 16 µg/mL (≈ 30.4 µM) | 32 µg/mL (≈ 60.8 µM) | 512 µg/mL (≈ 972 µM) | 32 µg/mL (≈ 60.8 µM) | > 512 µg/mL | 64 µg/mL (≈ 122 µM) | 512 µg/mL (≈ 972 µM)
O=C(O)c1ccc(N/C(S)=N\c2ccccc2/N=C(/S)Nc2ccc(C(=O)O)cc2)cc1 | ≥ 512 µg/mL | ≥ 512 µg/mL | > 512 µg/mL | > 512 µg/mL | 32 µg/mL (≈ 68.6 µM) | 32 µg/mL (≈ 68.6 µM) | 16 µg/mL (≈ 34.3 µM) | 512 µg/mL (≈ 1100 µM) | 16 µg/mL (≈ 34.3 µM) | > 512 µg/mL | 32 µg/mL (≈ 68.6 µM) | 512 µg/mL (≈ 1100 µM)
COC(=O)c1ccc(/N=C(\S)Nc2cccc(/N=C(/S)Nc3ccc(C(=O)OC)cc3)c2)cc1 | ≥ 512 µg/mL | ≥ 512 µg/mL | > 512 µg/mL | 512 µg/mL (≈ 1040 µM) | 64 µg/mL (≈ 129 µM) | 128 µg/mL (≈ 259 µM) | 128 µg/mL (≈ 259 µM) | > 512 µg/mL | 64 µg/mL (≈ 129 µM) | 512 µg/mL (≈ 1040 µM) | 64 µg/mL (≈ 129 µM) | > 512 µg/mL
CC(C)OC(=O)c1ccc(/N=C(\S)Nc2ccc(/N=C(\S)Nc3ccc(C(=O)OC(C)C)cc3)cc2)cc1 | ≥ 512 µg/mL | ≥ 512 µg/mL | > 512 µg/mL | > 512 µg/mL | 64 µg/mL (≈ 116 µM) | 32 µg/mL (≈ 58.1 µM) | 64 µg/mL (≈ 116 µM) | 512 µg/mL (≈ 930 µM) | 64 µg/mL (≈ 116 µM) | > 512 µg/mL | 64 µg/mL (≈ 116 µM) | 512 µg/mL (≈ 930 µM)
CC(=O)N1CCN(c2ccc(OC[C@H]3CO[C@](Cn4ccnc4)(c4ccc(Cl)cc4Cl)O3)cc2)CC1 [KETOCONAZOLE] | ≥ 512 µg/mL | ≥ 512 µg/mL | 128 µg/mL (≈ 241 µM) | – | 8 µg/mL (≈ 15.1 µM) | 16 µg/mL (≈ 30.1 µM) | 16 µg/mL (≈ 30.1 µM) | – | 16 µg/mL (≈ 30.1 µM) | – | 16 µg/mL (≈ 30.1 µM) | –
O=C(O)c1ccc(N/C(S)=N\c2ccccc2/N=C(/S)Nc2ccc(C(=O)O)c(O)c2)cc1O | ≥ 512 µg/mL | ≥ 512 µg/mL | 512 µg/mL (≈ 1030 µM) | > 512 µg/mL | 32 µg/mL (≈ 64.2 µM) | 16 µg/mL (≈ 32.1 µM) | 32 µg/mL (≈ 64.2 µM) | 512 µg/mL (≈ 1030 µM) | 32 µg/mL (≈ 64.2 µM) | > 512 µg/mL | 8 µg/mL (≈ 16 µM) | 512 µg/mL (≈ 1030 µM)
CCOC(=O)c1ccc(/N=C(\S)Nc2ccc(/N=C(/S)Nc3ccc(C(=O)OCC)c(O)c3)cc2)cc1O | ≥ 512 µg/mL | ≥ 512 µg/mL | > 512 µg/mL | > 512 µg/mL | 256 µg/mL (≈ 462 µM) | 256 µg/mL (≈ 462 µM) | 128 µg/mL (≈ 231 µM) | 512 µg/mL (≈ 923 µM) | > 512 µg/mL | > 512 µg/mL | > 512 µg/mL | 512 µg/mL (≈ 923 µM)
CC(C)OC(=O)c1ccc(/N=C(\S)Nc2cccc(/N=C(/S)Nc3ccc(C(=O)OC(C)C)c(O)c3)c2)cc1O | ≥ 512 µg/mL | ≥ 512 µg/mL | > 512 µg/mL | 512 µg/mL (≈ 879 µM) | 32 µg/mL (≈ 54.9 µM) | 32 µg/mL (≈ 54.9 µM) | 32 µg/mL (≈ 54.9 µM) | > 512 µg/mL | 32 µg/mL (≈ 54.9 µM) | 256 µg/mL (≈ 439 µM) | 16 µg/mL (≈ 27.5 µM) | > 512 µg/mL
O=C(O)c1ccc(/N=C(\S)Nc2ccc(/N=C(\S)Nc3ccc(C(=O)O)cc3)cc2)cc1 | ≥ 512 µg/mL | ≥ 512 µg/mL | 512 µg/mL (≈ 1100 µM) | > 512 µg/mL | 128 µg/mL (≈ 274 µM) | 32 µg/mL (≈ 68.6 µM) | 128 µg/mL (≈ 274 µM) | 512 µg/mL (≈ 1100 µM) | 128 µg/mL (≈ 274 µM) | > 512 µg/mL | 32 µg/mL (≈ 68.6 µM) | 512 µg/mL (≈ 1100 µM)
CC(C)OC(=O)c1ccc(/N=C(\S)Nc2cccc(/N=C(/S)Nc3ccc(C(=O)OC(C)C)cc3)c2)cc1 | ≥ 512 µg/mL | ≥ 512 µg/mL | > 512 µg/mL | 512 µg/mL (≈ 930 µM) | 16 µg/mL (≈ 29.1 µM) | 64 µg/mL (≈ 116 µM) | 8 µg/mL (≈ 14.5 µM) | > 512 µg/mL | 64 µg/mL (≈ 116 µM) | 512 µg/mL (≈ 930 µM) | 32 µg/mL (≈ 58.1 µM) | > 512 µg/mL
